The values that follow come from US9353132B2, “Boron-based 4-hydroxytamoxifen and endoxifen prodrugs as treatment for breast cancer” (XAVIER UNIVERSITY OF LOUISIANA, priority 2012, dated 2016).

The subject of data set [1] is estrogen-dependent cell proliferation. The conditions noted are these: cited from earlier work.
Data set [2] deals with T47D cells. In words: Cell survival/growth inhibition assay in ER+ T47D breast cancer cells. Type of data set: cell-based. The note with it: for inhibition at 1 µM / inhibition at 0.1 µM: T47D; for pIC50: dose-response, T47D cells. The source says:
The T47D cell line is also an ER positive control cell line.
To test if the prodrugs can inhibit growth in another breast cancer cell line that also expresses the estrogen receptor, T47D cells were used.

The nature of data set [3]: Kinetic stability of prodrug (conversion to 4-OHT) in MCF-7 cell culture. Type of data set: in vitro ADME, human. The conditions noted are these: human, MCF-7 cell culture; 0 to 144 hours, regression of prodrug concentration relative to 4-OHT. As to the method: (§1) A kinetic study on the stability of the prodrugs was performed. In the study, the relative concentration of a prodrug to 4-OHT was determined at different time points that ranged from 0 hour to 144 hours (6 days).

In data set [4] the test system is MCF-7 cells. The data set is described as follows: Cell survival/growth inhibition assay in ER+ MCF-7 breast cancer cells. The note with it: for inhibition at 1 µM / inhibition at 0.1 µM: MCF7. Type of data set: cell-based, human. The text has this:
MCF-7 is a human breast adenocarcinoma cell line commonly accepted in the art as useful for in vitro breast cancer studies because it has retained several ideal characteristics particular to mammary epithelium. These characteristics include the ability to process estrogen (in the form of estradiol) via estrogen receptors in the cell cytoplasm. This makes the MCF-7 cell line an estrogen receptor (ER) positive control cell line.
To test if the prodrugs inhibit breast cancer cell growth and proliferation, cell survival assays were conducted.

For data set [5], the system named is T47D cells. The data set is described as follows: Oxidative conversion of prodrug to 4-OHT in media after incubation with T47D cells (HPLC-MS/MS). The conditions noted are these: LC-MS/MS. Type of data set: in vitro ADME. On the procedure:
(§2) To determine if the actions of the prodrugs are by means of biotransformation into the compound 4-hydroxytamoxifen, we analyzed the concentrations of the prodrugs and 4-hydroxytamoxifen in the media containing breast cancer cells using an HPLC-MS/MS technique.
(§3) Using HPLC coupled to a linear trap mass spectrometer, the prodrugs and their active product, 4-OHT were separated, identified, and quantified.
(§4) The relative peak areas were measured at 30.4% for prodrug 3 and 69.6% for 4-OHT (FIG. 5 panel A).

A further data set has as its system MCF-7 cell culture. The data set is described as follows: Kinetic stability of prodrug (conversion to 4-OHT) in MCF-7 cell culture. The conditions noted are these: 0 to 144 hours, regression of prodrug concentration relative to 4-OHT. Type of data set: in vitro ADME, human. On the procedure:
as §1

Data set [6] relates to MCF-7 cells. The data set is described as follows: Oxidative conversion of prodrug to 4-OHT in media after incubation with MCF-7 cells (HPLC-MS/MS). Type of data set: in vitro ADME, human. The note with it: LC-MS/MS. On the procedure:
as §2, §3, §4

Setting [7] is: Homo sapiens, MCF7, dose-response, MCF-7 cells.

pIC50: −log10 of the molar value.

For the compound 4-hydroxytamoxifen [Prodrug 4-OHT], the “potency relative to tamoxifen in inhibiting estrogen-dependent cell proliferation” value in data set [1] is given as 30- to 100 fold.

The term inhibition denotes the drop in the measured response relative to a control, in per cent. Higher therefore signals strong suppression. Broadly, the pIC50 is the IC50 on a negative log10 scale, so that one unit is a factor of ten. By half-life is commonly meant the time needed for the level to fall by half in the phase considered. Take `CCC(=C(c1ccc(OCCN(C)C)cc1)c1ccc(B2OC(C)(C)C(C)(C)O2)cc1)c1ccccc1` [Prodrug 1, N,N-Dimethyl-2-(4-(2-phenyl-1-(4-(4,4,5,5-tetramethyl-1,3,2-dioxaborolan-2-yl)phenyl)but-1-en-1-yl)phenoxy)ethanamine]: the inhibition at 1 µM with T47D cells [2] (Homo sapiens, 10^−6 M) worked out at 60%; in the data set on MCF-7 cells [4] (Homo sapiens, 10^−6 M) it was 63%. The inhibition at 0.1 µM was 42% in the data set on T47D cells [2] (Homo sapiens, 10^−7 M) and 52% in the data set on MCF-7 cells [4] (Homo sapiens, 10^−7 M). The pIC50 in the data set on T47D cells [2] (Homo sapiens) was 6.84; in the data set on MCF-7 cells [4] (setting [7]), 6.82; in the data set on MCF-7 cells [4] (dose-response, MCF-7 cells, listed as Boron-4-OHT Prodrug (1)), 6.83. For the same compound, the half-life in data set [3] was 89 h. Further, in the data set on MCF-7 cells [4] (cell line not given, values match MCF-7), the “IC50 relative to tamoxifen” value is “about 5 times lower”.

For `CCC(=C(c1ccc(OCCN(C)C)cc1)c1ccc([B-](F)(F)F)cc1)c1ccccc1.[K+]` [Prodrug 2, Potassium (4-(1-(4-(2-(dimethylamino)ethoxy)phenyl)-2-phenylbut-1-en-1-yl)phenyl)trifluoro boronate], the entries for the “growth inhibition of T47D cells” value in the data set on T47D cells [2] (10^−6 M) and in the data set on T47D cells [2] (10^−7 M) were 50% and 38%, respectively. Moreover, the pIC50 is 6.59 in the data set with T47D cells [2]; 8.20 in the data set with MCF-7 cells [4] (dose-response, MCF-7 cells); 8.20 with MCF-7 cells [4] (dose-response, MCF-7 cells, listed as Boron-4-OHT Prodrug (2)). Further, the “% peak area of 4-OHT formed from prodrug (transformed into 4-OHT)” value with T47D cells [5] is on record as 86.3%. The “half-life of prodrug (conversion to 4-OHT)” value in the data set with MCF-7 cell culture was determined as 84 h. The “% peak area of 4-OHT formed from prodrug” value in the data set on MCF-7 cells [6] was determined as 81.6%. The “growth inhibition of MCF-7 cells” value was 76% with MCF-7 cells [4] (10^−6 M) and 59% in the data set with MCF-7 cells [4] (10^−7 M).

As for `CCC(=C(c1ccc(OCCN(C)C)cc1)c1ccc(B(O)O)cc1)c1ccccc1` [Prodrug 3, (4-(1-(4-(2-(Dimethylamino)ethoxy)phenyl)-2-phenylbut-1-en-1-yl)phenyl)boronic acid], the inhibition at 1 µM with T47D cells [2] (Homo sapiens, 10^−6 M) came out at 54%; in the data set with MCF-7 cells [4] (Homo sapiens, 10^−6 M), 75%. Further, the inhibition at 0.1 µM in the data set with T47D cells [2] (Homo sapiens, 10^−7 M) came to 44%; with MCF-7 cells [4] (Homo sapiens, 10^−7 M), 51%. For the same compound, the pIC50 in the data set with T47D cells [2] (Homo sapiens) was 6.64; in the data set with MCF-7 cells [4] (setting [7]) it was 7.38. Besides, in the data set on T47D cells [5], the “% peak area of remaining prodrug” value amounted to 20.9%. In addition, the half-life in data set [3] is 96 h. Further, the “relative peak area of remaining prodrug” value in the data set with MCF-7 cells [6] stood at 30.4%.

For the compound `CCC(=C(c1ccc(OCCNC)cc1)c1ccc(B(O)O)cc1)c1ccccc1` [Prodrug 11, (4-(1-(4-(2-(Methylamino)ethoxy)phenyl)-2-phenylbut-1-en-1-yl)phenyl)boronic acid], in the data set with T47D cells [2] (Homo sapiens, 10^−6 M), 1 µM produced 53% inhibition. The compound further gave an inhibition at 0.1 µM with T47D cells [2] (Homo sapiens, 10^−7 M) of 40%. The results for the pIC50 with T47D cells [2] (Homo sapiens) and in the data set with MCF-7 cells [4] (setting [7]) were 6.72 and 7.59, respectively. Moreover, the “anti-proliferative efficacy compared to tamoxifen” value with MCF-7 cells [4] (MCF-7 cells) is listed as “greater anti-proliferative efficacy than tamoxifen”.

On to `CC/C(=C(\c1ccccc1)c1ccc(OCCN(C)C)cc1)c1ccccc1` [Tamoxifen], for which the “growth inhibition of T47D cells” value with T47D cells [2] (10^−6 M) worked out at 48%. Also, the inhibition at 1 µM in the data set with T47D cells [2] (Homo sapiens, 10^−6 M) was determined as 46%; with MCF-7 cells [4] (Homo sapiens, 10^−6 M), 52%. The inhibition at 0.1 µM with T47D cells [2] (Homo sapiens, 10^−7 M) stood at 39%; with MCF-7 cells [4] (Homo sapiens, 10^−7 M), 18%.
